# Experimental data reported in PubChem BioAssay (NCI).
#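 GI50: concentration for 50% inhibition of growth. TGI: concentration producing complete growth inhibition.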
# Columns and labels:
# Test in all cases: inhibition of tumour cell growth, NCI panel, 384-well format
# [1] = test system: OVCAR-5 ovarian
# [2] = test system: K-562 leukemia
# [3] = test system: NCI/ADR-RES ovarian
# [4] = test system: A498 renal
# [5] = test system: MDA-MB-468 breast
# [6] = test system: NCI-H522 lung
# [7] = test system: COLO 205 colon
# [8] = test system: M14 melanoma
# [9] = test system: UACC-257 melanoma
# [10] = test system: SF-539 CNS
# [11] = test system: BT-549 breast
# [12] = test system: CCRF-CEM leukemia
# [13] = test system: HOP-62 NSCLC
# [14] = test system: HCT-116 colon
# [15] = test system: SF-295 CNS
# [16] = test system: SK-MEL-5 melanoma
# [17] = test system: SR leukemia
# [18] = test system: SF-268 CNS
# [19] = test system: 786-0 renal
# [20] = test system: LOX IMVI melanoma
# [21] = test system: CAKI-1 renal
# [22] = test system: UO-31 renal
# [23] = test system: HL-60(TB) leukemia
# [24] = test system: OVCAR-8 ovarian
# [25] = test system: UACC-62 melanoma
# [26] = test system: HOP-92 NSCLC
# [27] = test system: RXF 393 renal
# [28] = test system: SNB-19 CNS
# [29] = test system: NCI-H460 NSCLC
# [30] = test system: SK-MEL-28 melanoma
# [31] = test system: NCI-H23 lung
# [32] = test system: HT29 colon
# [33] = test system: DU-145 prostate
# [34] = test system: SK-OV-3 ovarian
# [35] = test system: U251 glioblastoma
# [36] = test system: PC-3 prostate
# [37] = test system: MDA-MB-435 melanoma
# [38] = test system: SK-MEL-2 melanoma
# [39] = test system: T-47D breast
# [40] = test system: ACHN renal
# [41] = test system: A549 NSCLC
# [42] = test system: OVCAR-3 ovarian
# [43] = test system: SN12C renal
# [44] = test system: OVCAR-4 ovarian
# [45] = test system: MDA-MB-231 breast
# [46] = test system: MOLT-4 leukemia
# [47] = test system: HCT-15 colon
# [48] = test system: TK-10 renal
# [49] = test system: SW-620 colon
# [50] = test system: KM12 colon
# [51] = test system: RPMI-8226 leukemia
# [52] = test system: NCI-H226 lung
# [53] = test system: MCF7 breast
# [54] = test system: MALME-3M melanoma
# [55] = test system: NCI-H322M lung
# [56] = test system: HCC-2998 colon
# [57] = test system: IGROV1 ovarian
smiles,measurement,setting,value
O=C(NS(=O)(=O)c1ccc(NC[C@H]2COCCO2)c([N+](=O)[O-])c1)c1ccc(N2CCN(CC3=C(c4ccc(Cl)cc4)CC4(CCC4)CC3)CC2)cc1Oc1cnc2[nH]ccc2c1,GI50,[1],2.15 µM
same,TGI,[1],4.28 µM
same,GI50,[2],3.32 µM
same,TGI,[2],11.1 µM
same,GI50,[3],4.66 µM
same,TGI,[3],16.7 µM
same,GI50,[4],1.86 µM
same,TGI,[4],5.09 µM
same,GI50,[5],1.83 µM
same,TGI,[5],3.86 µM
same,GI50,[6],3 µM
same,TGI,[6],7.32 µM
same,GI50,[7],2.26 µM
same,TGI,[7],4.27 µM
same,GI50,[8],2.1 µM
same,TGI,[8],4.14 µM
same,GI50,[9],2.17 µM
same,TGI,[9],4.31 µM
same,GI50,[10],1.97 µM
same,TGI,[10],4.22 µM
same,GI50,[11],2.63 µM
same,TGI,[11],5.74 µM
same,GI50,[12],1.34 µM
same,TGI,[12],2.64 µM
same,GI50,[13],2.24 µM
same,TGI,[13],5.19 µM
same,GI50,[14],2.3 µM
same,TGI,[14],5.47 µM
same,GI50,[15],1.39 µM
same,TGI,[15],3.24 µM
same,GI50,[16],1.81 µM
same,TGI,[16],3.33 µM
same,GI50,[17],1.13 µM
same,TGI,[17],2.35 µM
same,GI50,[18],3.32 µM
same,TGI,[18],8.91 µM
same,GI50,[19],2.41 µM
same,TGI,[19],6.75 µM
same,GI50,[20],2.8 µM
same,TGI,[20],5.3 µM
same,GI50,[21],2.17 µM
same,TGI,[21],5.11 µM
same,GI50,[22],2.1 µM
same,TGI,[22],4.75 µM
same,GI50,[23],0.0239 µM
same,TGI,[23],1.24 µM
same,GI50,[24],2.99 µM
same,TGI,[24],9.88 µM
same,GI50,[25],1.96 µM
same,TGI,[25],3.78 µM
same,GI50,[26],1.56 µM
same,TGI,[26],3.1 µM
same,GI50,[27],1.34 µM
same,TGI,[27],2.94 µM
same,GI50,[28],3.97 µM
same,TGI,[28],14.7 µM
same,GI50,[29],1.65 µM
same,TGI,[29],3.98 µM
same,GI50,[30],2.53 µM
same,TGI,[30],5.49 µM
same,GI50,[31],1.89 µM
same,TGI,[31],4.05 µM
same,GI50,[32],2.32 µM
same,TGI,[32],5.17 µM
same,GI50,[33],2.82 µM
same,TGI,[33],7.77 µM
same,GI50,[34],2.91 µM
same,TGI,[34],7.58 µM
same,GI50,[35],2.34 µM
same,TGI,[35],5.35 µM
same,GI50,[36],2.12 µM
same,TGI,[36],5.15 µM
same,GI50,[37],2.38 µM
same,TGI,[37],5.03 µM
same,GI50,[38],1.99 µM
same,TGI,[38],3.69 µM
same,GI50,[39],2.92 µM
same,TGI,[39],9.74 µM
same,GI50,[40],2.37 µM
same,TGI,[40],6.63 µM
same,GI50,[41],2.34 µM
same,TGI,[41],7.54 µM
same,GI50,[42],2 µM
same,TGI,[42],3.91 µM
same,GI50,[43],2.52 µM
same,TGI,[43],7.27 µM
same,GI50,[44],2.64 µM
same,TGI,[44],6.47 µM
same,GI50,[45],2.06 µM
same,TGI,[45],4.32 µM
same,GI50,[46],0.814 µM
same,TGI,[46],2.08 µM
same,GI50,[47],2.02 µM
same,TGI,[47],4.07 µM
same,GI50,[48],2.69 µM
same,TGI,[48],8.48 µM
same,GI50,[49],3.96 µM
same,TGI,[49],12.9 µM
same,GI50,[50],2.51 µM
same,TGI,[50],6.15 µM
same,GI50,[51],1.02 µM
same,TGI,[51],2.18 µM
same,GI50,[52],1.98 µM
same,TGI,[52],4.2 µM
same,GI50,[53],2.65 µM
same,TGI,[53],8.8 µM
same,GI50,[54],2.28 µM
same,TGI,[54],4.37 µM
same,GI50,[55],2.79 µM
same,TGI,[55],6.65 µM
same,GI50,[56],1.81 µM
same,TGI,[56],3.37 µM
same,GI50,[57],1.84 µM
same,TGI,[57],4.31 µM
